Calls of active or inactive are those of the source. The rule behind the calls is not given here.
Key:
[1] = Oral bioavailability in CD rat at 3 mg/kg; type: ADME, organism-based; conditions: in vivo
[2] = target: T1, Sphingosine 1-phosphate receptor 3 (Homo sapiens, UniProt Q99500); assay: Agonist activity at human S1P3 receptor expressed in RBL cells assessed as [35S]GTPgammaS binding after 3 hrs by radiometric assay; type: functional, cell-based
Plasma = assay: Fraction unbound in CD rat plasma; type: ADME, cell-free
[3] = target: Voltage-gated inwardly rectifying potassium channel KCNH2 (Homo sapiens, UniProt Q12809)
[4] = Blood clearance in CD rat at 1 mg/kg, iv; type: ADME, organism-based; set-up: dose 1 mg/kg, route intravenous
[5] = Chromatographic hydrophobicity index, log D of the compound at pH 7.4; type: physicochemical; conditions: buffer
[6] = Dissociation constant, pKa of the compound; type: physicochemical
[7] = Volume of distribution at steady state in CD rat at 1 mg/kg, iv; type: ADME, organism-based; set-up: dose 1 mg/kg, route intravenous; conditions: in vivo, read-out: Vdss
[8] = Chromatographic hydrophobicity index, log D of the compound at pH 10.5; type: physicochemical; conditions: buffer
[9] = Half life in CD rat at 1 mg/kg, iv; type: ADME, organism-based; set-up: dose 1 mg/kg, route intravenous; conditions: in vivo
[10] = target: T2, Sphingosine 1-phosphate receptor 1 (Homo sapiens, UniProt P21453); assay: Agonist activity at human S1P1 receptor expressed in CHO-K1 EDG1 cells expressing beta-arrestin 2 after 105 mins by chemi-luminescence assay; type: functional, cell-based
[11] = Chromatographic hydrophobicity index, log D of the compound at pH 2.0; type: physicochemical; conditions: buffer
[12] = Plasma protein binding in CD rat at 1 mg/kg, iv; type: ADME, organism-based; set-up: dose 1 mg/kg, route intravenous; conditions: read-out: PPB
Rattus norvegicus [13] = assay: Lymphopenic activity in Lewis rat assessed as reduction in blood lymphocyte counts at 1 mg/kg, po; type: functional; set-up: scale not given: the % may be the effect or the level left
hERG (KCNH2) = hERG (KCNH2) (Homo sapiens, UniProt Q12809); assay: Inhibition of human ERG at 30 uM
[14] = Bioavailability in CD rat at 1 mg/kg, […]; type: ADME, organism-based; conditions: in vivo
[15] = target: T3, Sphingosine 1-phosphate receptor 4 (Homo sapiens) (UniProt O95977); assay: Agonist activity at human S1P4 expressed in CHO-K1 aequorin cells assessed as calcium accumulation of by luminescence assay in presence of cofactor coelenterazine relative to control; type: functional, cell-based
T3 sequence (whole entry): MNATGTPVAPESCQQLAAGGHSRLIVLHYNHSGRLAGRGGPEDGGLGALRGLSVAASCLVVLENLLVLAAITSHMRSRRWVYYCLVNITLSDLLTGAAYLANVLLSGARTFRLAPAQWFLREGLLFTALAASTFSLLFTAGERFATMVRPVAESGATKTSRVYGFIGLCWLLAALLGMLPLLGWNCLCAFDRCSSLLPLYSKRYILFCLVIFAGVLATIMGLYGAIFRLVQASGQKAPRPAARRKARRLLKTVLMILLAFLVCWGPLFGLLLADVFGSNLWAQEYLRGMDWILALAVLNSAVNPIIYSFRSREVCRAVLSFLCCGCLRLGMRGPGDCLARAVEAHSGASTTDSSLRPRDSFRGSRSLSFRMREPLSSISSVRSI

[16] = target: T4, Sphingosine 1-phosphate receptor 4 (Homo sapiens, UniProt O95977); assay: Agonist activity at human S1P4 expressed in CHO-K1 aequorin cells assessed as calcium accumulation of by luminescence assay in presence of cofactor coelenterazine; type: functional, cell-based
T4 sequence (O95977 whole entry): T3 sequence (whole entry)

[17] = target: T5, Sphingosine 1-phosphate receptor 5 (Homo sapiens, UniProt Q9H228); assay: Agonist activity at human S1P5 receptor expressed in CHO-K1 aequorin cells assessed as calcium accumulation of by luminescence assay in presence of cofactor coelenterazine relative to control; type: functional, cell-based
[18] = target: T2, Sphingosine 1-phosphate receptor 1; assay: Agonist activity at human S1P1 receptor expressed in CHO-K1 EDG1 cells expressing beta-arrestin 2 after 105 mins by chemi-luminescence assay relative to control; type: functional, cell-based
[19] = target: T1, Sphingosine 1-phosphate receptor 3; assay: Agonist activity at human S1P3 receptor expressed in RBL cells assessed as [35S]GTPgammaS binding after 3 hrs by radiometric assay relative to control; type: functional, cell-based
Rattus norvegicus [20] = assay: Metabolic stability of the compound in Lewis rat at 1 mg/kg, po; type: ADME, organism-based; set-up: dose 1 mg/kg, route oral; conditions: in vivo
[21] = target: T6, Sphingosine 1-phosphate receptor 2 (Homo sapiens, UniProt O95136); assay: Agonist activity at human S1P2 receptor expressed in yeast MMY24 assessed as conversion of FDGlu to fluorescein after 24 hrs; type: functional
[22] = target: T5, Sphingosine 1-phosphate receptor 5; assay: Agonist activity at human S1P5 receptor expressed in CHO-K1 aequorin cells assessed as calcium accumulation of by luminescence assay in presence of cofactor coelenterazine; type: functional, cell-based
[23] = test system: MDR1 (P-glycoprotein), human; assay: Efflux ratio of permeability in dog MDCK2 cells expressing human MDR1; type: ADME, cell-based, Canis lupus familiaris, MDCK-II; conditions: MDCK-MDR1
[24] = target: T6, Sphingosine 1-phosphate receptor 2; assay: Agonist activity at human S1P2 receptor expressed in yeast MMY24 assessed as conversion of FDGlu to fluorescein after 24 hrs relative to control; type: functional
Cytochrome P450 3A4 [25] = target: T7, Cytochrome P450 3A4 (Homo sapiens, UniProt P08684); assay: Inhibition of CYP3A4 using vivid red as substrate; type: ADME
[26] = Half life in Beagle dog at 1 mg/kg, iv; type: ADME, organism-based, Canis lupus familiaris; set-up: dose 1 mg/kg, route intravenous; conditions: in vivo
[27] = Intrinsic clearance in cynomolgus monkey hepatocytes; type: ADME, cell-based, Macaca fascicularis, Liver, Hepatocyte
Hepatocyte [28] = assay: Intrinsic clearance in rat hepatocytes; type: ADME, cell-based, Liver
[29] = Ratio of drug level in brain to blood in CD rat at 0.8 mg/kg/hr, iv measured up to 7 hrs; type: ADME, organism-based; set-up: route intravenous
Cytochrome P450 2C9 = Cytochrome P450 2C9 (Homo sapiens, UniProt P11712); assay: Inhibition of CYP2C9; type: ADME
Cytochrome P450 2C19 = Cytochrome P450 2C19 (Homo sapiens, UniProt P33261); assay: Inhibition of CYP2C19; type: ADME
[30] = Blood clearance in Beagle dog at 1 mg/kg, iv; type: ADME, organism-based, Canis lupus familiaris; set-up: dose 1 mg/kg, route intravenous
[31] = Oral bioavailability in Beagle dog at 1 mg/kg; type: ADME, organism-based, Canis lupus familiaris; conditions: in vivo
Rattus norvegicus [32] = assay: Lymphopenic activity in Lewis rat assessed as reduction in blood lymphocyte counts at 0.3 mg/kg, po; type: functional, organism-based; set-up: dose 0.3 mg/kg
[33] = Intrinsic clearance in dog hepatocytes; type: ADME, cell-based, Canis lupus familiaris, Liver, Hepatocyte
Hepatocyte [34] = assay: Intrinsic clearance in human hepatocytes; type: ADME, cell-based, Liver
[35] = Solubility of the compound in fed state simulated intestinal fluid; type: physicochemical; conditions: simulated gi fluid
Hepatocyte [36] = assay: Intrinsic clearance in mouse hepatocytes; type: ADME, cell-based, Liver
[37] = Oral bioavailability in CD rat at 1 mg/kg; type: ADME, organism-based; conditions: in vivo
Cytochrome P450 2D6 = Cytochrome P450 2D6 (Homo sapiens, UniProt P10635); assay: Inhibition of CYP2D6; type: ADME
Cytochrome P450 3A4 [38] = target: T7, Cytochrome P450 3A4; assay: Inhibition of CYP3A4 using vivid green as substrate; type: ADME
[39] = Volume of distribution at steady state in Beagle dog at 1 mg/kg, iv; type: ADME, organism-based, Canis lupus familiaris; set-up: dose 1 mg/kg, route intravenous; conditions: in vivo, read-out: Vdss

Sequence of Voltage-gated inwardly rectifying potassium channel KCNH2 (Q12809 whole entry): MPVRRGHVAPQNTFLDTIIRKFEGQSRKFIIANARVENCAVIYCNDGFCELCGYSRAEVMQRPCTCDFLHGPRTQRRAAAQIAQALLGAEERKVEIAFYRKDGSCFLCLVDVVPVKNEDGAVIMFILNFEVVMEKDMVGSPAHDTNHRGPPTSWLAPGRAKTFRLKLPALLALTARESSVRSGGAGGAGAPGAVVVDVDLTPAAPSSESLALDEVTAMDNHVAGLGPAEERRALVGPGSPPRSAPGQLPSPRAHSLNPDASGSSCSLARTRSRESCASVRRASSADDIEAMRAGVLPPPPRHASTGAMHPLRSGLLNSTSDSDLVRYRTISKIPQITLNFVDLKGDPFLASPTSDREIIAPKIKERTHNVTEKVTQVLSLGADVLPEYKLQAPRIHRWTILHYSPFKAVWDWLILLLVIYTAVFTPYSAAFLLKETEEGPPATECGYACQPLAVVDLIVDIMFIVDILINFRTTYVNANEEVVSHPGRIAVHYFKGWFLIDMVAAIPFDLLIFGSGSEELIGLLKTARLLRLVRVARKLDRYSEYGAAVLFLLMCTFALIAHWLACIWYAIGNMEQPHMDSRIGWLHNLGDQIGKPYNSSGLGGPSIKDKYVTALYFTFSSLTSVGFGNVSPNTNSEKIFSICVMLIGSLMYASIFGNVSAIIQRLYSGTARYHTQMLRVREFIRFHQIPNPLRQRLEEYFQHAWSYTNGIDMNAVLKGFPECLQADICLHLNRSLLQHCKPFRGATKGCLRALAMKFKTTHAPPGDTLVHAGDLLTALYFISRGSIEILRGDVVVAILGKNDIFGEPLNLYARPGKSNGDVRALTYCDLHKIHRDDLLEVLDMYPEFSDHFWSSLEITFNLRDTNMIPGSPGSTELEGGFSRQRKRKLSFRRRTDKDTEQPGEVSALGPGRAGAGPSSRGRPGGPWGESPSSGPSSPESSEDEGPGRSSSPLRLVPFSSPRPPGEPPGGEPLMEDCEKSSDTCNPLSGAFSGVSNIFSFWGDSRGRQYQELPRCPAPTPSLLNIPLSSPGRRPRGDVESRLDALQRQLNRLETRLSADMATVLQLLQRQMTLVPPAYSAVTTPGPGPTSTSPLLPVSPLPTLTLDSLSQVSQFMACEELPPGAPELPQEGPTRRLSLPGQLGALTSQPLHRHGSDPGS
Sequence of hERG (KCNH2) (Q12809 whole entry): as above
T5 sequence (Q9H228 whole entry): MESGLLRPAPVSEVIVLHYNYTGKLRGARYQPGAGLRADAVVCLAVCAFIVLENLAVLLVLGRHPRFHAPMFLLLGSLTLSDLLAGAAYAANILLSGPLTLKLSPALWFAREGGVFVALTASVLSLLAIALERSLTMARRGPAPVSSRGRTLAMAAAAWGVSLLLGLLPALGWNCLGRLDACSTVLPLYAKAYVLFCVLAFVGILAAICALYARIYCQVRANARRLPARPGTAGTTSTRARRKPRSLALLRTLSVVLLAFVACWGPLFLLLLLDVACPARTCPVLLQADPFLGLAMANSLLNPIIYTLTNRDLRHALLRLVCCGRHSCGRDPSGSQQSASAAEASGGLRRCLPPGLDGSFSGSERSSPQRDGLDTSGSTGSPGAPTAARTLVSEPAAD
T1 sequence (Q99500 whole entry): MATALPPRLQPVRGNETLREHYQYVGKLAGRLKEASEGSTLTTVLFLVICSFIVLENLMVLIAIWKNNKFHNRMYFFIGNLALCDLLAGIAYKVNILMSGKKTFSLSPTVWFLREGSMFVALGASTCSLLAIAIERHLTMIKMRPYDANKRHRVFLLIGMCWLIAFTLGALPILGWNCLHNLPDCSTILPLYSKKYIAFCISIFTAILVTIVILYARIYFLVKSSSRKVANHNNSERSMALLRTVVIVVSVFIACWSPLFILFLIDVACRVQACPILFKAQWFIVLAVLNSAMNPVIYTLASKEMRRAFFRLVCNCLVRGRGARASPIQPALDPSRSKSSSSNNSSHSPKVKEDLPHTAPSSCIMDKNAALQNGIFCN
T2 sequence (P21453 whole entry): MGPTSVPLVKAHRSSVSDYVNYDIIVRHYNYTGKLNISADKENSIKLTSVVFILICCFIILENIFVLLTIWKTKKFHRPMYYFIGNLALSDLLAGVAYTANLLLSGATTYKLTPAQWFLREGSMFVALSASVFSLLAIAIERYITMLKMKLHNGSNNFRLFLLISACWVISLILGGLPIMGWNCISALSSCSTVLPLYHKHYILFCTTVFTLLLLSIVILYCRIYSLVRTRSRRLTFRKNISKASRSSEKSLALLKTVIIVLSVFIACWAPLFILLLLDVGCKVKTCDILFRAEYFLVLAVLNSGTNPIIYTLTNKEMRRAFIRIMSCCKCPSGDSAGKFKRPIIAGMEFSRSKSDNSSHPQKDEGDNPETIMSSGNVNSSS
T7 sequence (P08684 whole entry): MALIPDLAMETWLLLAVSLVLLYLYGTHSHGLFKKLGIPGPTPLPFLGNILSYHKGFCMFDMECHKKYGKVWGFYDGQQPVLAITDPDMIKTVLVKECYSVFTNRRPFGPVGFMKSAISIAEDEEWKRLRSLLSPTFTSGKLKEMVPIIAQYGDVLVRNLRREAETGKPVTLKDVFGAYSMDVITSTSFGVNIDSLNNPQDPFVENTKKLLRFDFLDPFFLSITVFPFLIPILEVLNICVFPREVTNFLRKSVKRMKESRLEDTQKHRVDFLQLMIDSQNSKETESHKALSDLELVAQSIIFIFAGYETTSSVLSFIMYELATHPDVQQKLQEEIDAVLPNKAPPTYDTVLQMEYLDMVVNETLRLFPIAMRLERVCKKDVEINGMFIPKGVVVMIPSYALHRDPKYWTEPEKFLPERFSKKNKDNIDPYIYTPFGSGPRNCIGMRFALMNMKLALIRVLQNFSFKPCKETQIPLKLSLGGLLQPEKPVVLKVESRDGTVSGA
T6 sequence (O95136 whole entry): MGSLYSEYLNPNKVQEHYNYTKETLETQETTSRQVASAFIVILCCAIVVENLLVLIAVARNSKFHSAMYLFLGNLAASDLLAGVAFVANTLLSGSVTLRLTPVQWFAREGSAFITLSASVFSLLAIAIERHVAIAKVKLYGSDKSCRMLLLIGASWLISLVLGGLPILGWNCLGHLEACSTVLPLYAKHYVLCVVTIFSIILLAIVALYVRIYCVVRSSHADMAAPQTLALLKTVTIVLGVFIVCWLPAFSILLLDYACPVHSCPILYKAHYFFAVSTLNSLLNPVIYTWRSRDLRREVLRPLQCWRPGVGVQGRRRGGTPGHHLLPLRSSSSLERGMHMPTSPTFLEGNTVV
Sequence of Cytochrome P450 2C19 (P33261 whole entry): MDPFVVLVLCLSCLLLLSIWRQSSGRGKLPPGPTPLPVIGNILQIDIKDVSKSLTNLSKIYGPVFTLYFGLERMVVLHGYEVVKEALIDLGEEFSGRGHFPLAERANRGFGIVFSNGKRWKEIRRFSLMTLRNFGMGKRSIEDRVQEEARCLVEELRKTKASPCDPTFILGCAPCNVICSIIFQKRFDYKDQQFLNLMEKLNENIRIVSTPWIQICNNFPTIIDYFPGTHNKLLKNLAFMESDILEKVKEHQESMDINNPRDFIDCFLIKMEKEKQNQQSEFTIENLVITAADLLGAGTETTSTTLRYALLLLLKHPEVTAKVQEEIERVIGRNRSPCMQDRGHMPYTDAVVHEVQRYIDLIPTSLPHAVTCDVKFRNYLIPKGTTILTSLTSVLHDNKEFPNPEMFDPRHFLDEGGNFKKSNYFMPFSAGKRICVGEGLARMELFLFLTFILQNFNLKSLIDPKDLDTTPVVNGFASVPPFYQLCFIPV

## CC(C)Oc1ncc(-c2nc(-c3ccc4c(c3)CCNCC4)no2)cc1C#N
[1]
  bioavailability: 70%
[2]
  EC50: > 31.6 µM
Plasma
  Fu: 0.25%
[3]
  IC50: 3.16 µM
[4]
  clearance: 20 mL/min/kg
[5]
  chromatographic logD: 2.65
[6]
  pKa: 9.69
[7]
  Vd: 9.7 L/kg
[8]
  chromatographic logD: 3.73
[9]
  half-life: 6.3 h
[10]
  EC50: 0.02 µM
[11]
  chromatographic logD: 1.34
[12]
  fraction unbound: < 0.05

## Cc1c(-c2noc(-c3ccc(OC(C)C)c(C#N)c3)n2)cnc2c1CCN(C(CO)CO)C2
[1]
  bioavailability: 37%
[2]
  EC50: > 100 µM
[3]
  IC50: 12.6 µM
Rattus norvegicus [13]
  Activity: 70%
[4]
  clearance: 21 mL/min/kg
[5]
  chromatographic logD: 2
[6]
  pKa: 6.22
[7]
  Vd: 3.3 L/kg
[9]
  half-life: 2.1 h
[10]
  EC50: 0.02 µM

## CC(C)Oc1ccc(-c2nc(-c3ccc4c(c3)CCN(C(CO)CO)CC4)no2)cc1C#N
[2]
  EC50: 15.8 µM
[3]
  IC50: 17.8 µM
Rattus norvegicus [13]
  Activity: 88%
[4]
  clearance: 21 mL/min/kg
[5]
  chromatographic logD: 2.74
hERG (KCNH2)
  inhibition at 30 µM: 59%
[6]
  pKa: 7.81
[14]
  bioavailability: 68%
[7]
  Vd: 7.6 L/kg
[9]
  half-life: 5.3 h
[10]
  EC50: 0.02 µM

## CCCCCCCCc1ccc(CC[C@](N)(CO)COP(=O)(O)O)cc1 [FTY720-P]
[15]
  Emax: 48%
[16]
  EC50: 0.2 µM
[17]
  Emax: 7.2%
[18]
  Emax: 99%
[19]
  Emax: 62%

## CC(C)Oc1ccc(-c2nc(-c3ccc4c(c3)CCN(C(CO)CO)C4)no2)cc1C#N
[2]
  EC50: 6.31 µM
[3]
  IC50: 20 µM
Rattus norvegicus [13]
  Activity: 49%
[4]
  clearance: 87 mL/min/kg
[5]
  chromatographic logD: 2.49
[6]
  pKa: 7.28
[7]
  Vd: 3.7 L/kg
[9]
  half-life: 0.6 h
[10]
  EC50: 0.00794 µM

## Cc1c(-c2noc(-c3ccc(OC(C)C)c(C#N)c3)n2)ccc2c1CCN(CC(=O)N[C@@H](C)CO)C2
[1]
  bioavailability: 38%
[2]
  EC50: 25.1 µM
[3]
  IC50: > 10 µM
Rattus norvegicus [13]
  Activity: 90%
[4]
  clearance: 32 mL/min/kg
[5]
  chromatographic logD: 3.04
hERG (KCNH2)
  inhibition at 30 µM: 43%
[6]
  pKa: 6.07
Rattus norvegicus [20]
  Stability: Unstable
[7]
  Vd: 4.4 L/kg
[9]
  half-life: 2 h
[10]
  EC50: 0.00126 µM

## Cc1c(-c2noc(-c3ccc(OC(C)C)c(C#N)c3)n2)ccc2c1CCN(CCC(=O)O)C2
[2]
  EC50: > 31.6 µM
[21]
  EC50: > 33.1 µM
[22]
  EC50: 0.162 µM
[23]
  efflux ratio: 6
[15]
  Emax: 3%
[24]
  Emax: 1%
[16]
  EC50: > 41.7 µM
[17]
  Emax: 77%
[18]
  Emax: 94%
[10]
  EC50: 0.00562 µM
[19]
  Emax: 35%

## Cc1c(-c2noc(-c3ccc(OC(C)C)c(C#N)c3)n2)ccc2c1CCN(C(CO)CO)C2
Cytochrome P450 3A4 [25]
  IC50: 15.3 µM
[1]
  bioavailability: 52%
[2]
  EC50: > 31.6 µM
[26]
  half-life: 3 h
[27]
  CL: 1.3 mL/min/g
[22]
  EC50: 0.02 µM
Hepatocyte [28]
  CL: 3 mL/min/g
[29]
  Kp at 7 h: 1.87
Cytochrome P450 2C9
  IC50: 4.3 µM
Cytochrome P450 2C19
  IC50: > 50 µM
[30]
  clearance: 29 mL/min/kg
[3]
  IC50: 12.9 µM
Rattus norvegicus [13]
  Activity: 96%
[4]
  clearance: 60 mL/min/kg
[5]
  chromatographic logD: 2.64
hERG (KCNH2)
  inhibition at 30 µM: 58%
[31]
  bioavailability: 45%
Rattus norvegicus [32]
  Activity: Active
[6]
  pKa: 7.3
[33]
  CL: 30 mL/min/g
Hepatocyte [34]
  CL: 2 mL/min/g
[7]
  Vd: 4.1 L/kg
[35]
  solubility: > 1 µg/mL
Hepatocyte [36]
  CL: 1.3 mL/min/g
[8]
  chromatographic logD: 2.99
[9]
  half-life: 1 h
[37]
  bioavailability: 52%
Cytochrome P450 2D6
  IC50: > 50 µM
Cytochrome P450 3A4 [38]
  IC50: 8.4 µM
[39]
  Vd: 7 L/kg
[10]
  EC50: 0.00316 µM
[11]
  chromatographic logD: 0.98

## CC(C)Oc1ccc(-c2nc(-c3cccc4c3OCCN(C(CO)CO)C4)no2)cc1C#N
[2]
  EC50: > 31.6 µM
Rattus norvegicus [13]
  Activity: 60%
[4]
  clearance: 14 mL/min/kg
[5]
  chromatographic logD: 2.41
[6]
  pKa: 6.03
[7]
  Vd: 3.3 L/kg
[9]
  half-life: 3.5 h
[10]
  EC50: 0.02 µM

Source: ChEMBL document CHEMBL1833884, “Discovery of a brain-penetrant S1P₃-sparing direct agonist of the S1P₁ and S1P₅ receptors efficacious at low oral dose” (J Med Chem, 2011)
